Measurements reported in patent US20190353644A1, “PROFILE ANALYSIS OF CELL POLARITY” (Wake Forest University Health Sciences, priority 2018, published 2019).

Key:
[1] = tested on: HMT-3522 S1 mammary epithelial cells acini; assay: Visual scoring of apical polarity markers in 3D acini cultures (conventional methods); type: cell-based; conditions: elevated levels of leptin; measured with conventional methods (Tenvooren et al.)
Description: Non-neoplastic HMT-3522 S1 mammary epithelial cells were obtained from Dr. Mina Bissell (Lawrence Berkeley Laboratory) and propagated between passages 54 and 60 in H14 medium. Acinar differentiation was achieved by culturing the cells in 3D on top of a layer of Matrigel matrix (Corning) in chambered slides (Millipore), as described (10).
Fluorescent signals of polarity markers in 3D cell cultures were scored visually for apical localization using an Olympus IX83 epifluorescence microscope equipped with a 60× oil immersion objective (NA=1.35). At least 100 acini were scored per condition in each experiment. Alternatively, fluorescence images were taken with the CMOS camera (Hamamatsu, ORCA-Flash4.0) on this microscope, using a 10× (NA=0.3) objective. The ImageJ script was used to extract acini from DAPI images and to calculate the radial distribution of the signals. 150-450 acini were analyzed per condition.

[2] = tested on: HMT-3522 S1 mammary epithelial cells acini; assay: Radial profile (RP) analysis of ZO-1 distribution in acini; type: cell-based
Procedure: The concept of radial profile (RP) analysis of epithelial polarity was tested. A macro script and two plugins for the open image analysis software ImageJ (imagej.nih.gov/ij/) were developed. Subsequently, computer code was translated for the MATLAB® computing platform and improvements were made. This new code is referred to as the RadialProfiler algorithm. MATLAB® is a more robust and versatile computing platform that allows important improvement to the approach. In particular, MATLAB® can easily process entire image folders in batch using looping functions. Batch processing has been included in the new MATLAB® version of the RP analysis that enables automated analyses of series of images. The code was designed to analyze two-channel fluorescence microscopy images. The first channel corresponds to DAPI staining of cell nuclei, whereas the second channel corresponds to an apical polarity marker (e.g., ZO-1, Par3, or actin) detected by immunofluorescence. […] Initially, two plugins were developed to compare two approaches to quantify apical polarity: (1) an analysis of the RP distribution of the signals and (2) the computation of the moment of inertia (MOI). […]
Fluorescent signals of polarity markers in 3D cell cultures were scored visually for apical localization using an Olympus IX83 epifluorescence microscope equipped with a 60× oil immersion objective (NA=1.35). […]

[3] = tested on: mammary epithelial cell line stably expressing GFP-ZO-1; assay: Live cell imaging of GFP-ZO-1 mammary epithelial cell line; type: cell-based; conditions: leptin treatment
Description: Immunostaining techniques have certain limitations, including (1) time consumption, (2) costs of reagents, and (3) poor time resolution. An alternative approach has been developed based on live cell imaging. Immunostaining for polarity markers is replaced by expression of polarity marker proteins tagged with a fluorescent protein (e.g., GFP-ZO-1). A mammary epithelial cell line stably expressing GFP-ZO-1 has been generated and characterized (FIGS. 9A-9B). The cell line retains apical-basal polarity (which is disturbed by leptin treatment) and expresses the recombinant marker at physiological levels. As a more flexible alternative to genetically encoded fluorescent markers of polarity, a nontoxic actin dye compatible with live cell imaging (SiR-actin) has been used. Cells are stained for 1 h with a mix of SiR-actin and Hoechst (DNA dye) before imaging. Similar results were obtained with this approach compared to the fixed, immunostaining approach described in EXAMPLE 1.

live S1 cell acini = assay: Live cell imaging of acini stained with SiR-actin; type: cell-based; conditions: leptin treatment as in EXAMPLE 3
Description: RadialProfiler can be applied to quantify epithelial markers detected by immunofluorescence (as described in Tenvooren et al., Oncogene (2019)), or to quantify cortical actin labeled in live acini with the SiR-actin dye (Cytoskeleton Inc.). DAPI and Hoechst are used to counterstain cell nuclei in fixed and live experiments, respectively.
For imaging, an automated IX83 microscope (Olympus) equipped with a motorized ultrasonic stage and a TruFocus Z drift compensation module was used. For RadialProfiler analyses, images are taken with either 10× (NA=0.3) or 20× (NA=0.45) air lenses, using a sCMOS camera (ORCA-Flash4.0, Hamamatsu). The RadialProfiler software was also tested with images acquired using different imaging systems, including a high content imager (Perkin Elmer Operetta CLS). RadialProfiler and the underlying approach to analyze polarity are agnostic to the imaging system. Fields of view are chosen either in an automated fashion or based on nuclear signals (DAPI or Hoechst) to avoid bias. For live cell analyses, acini are maintained at 37° C. and 5% CO2 using a stage-top incubator (Tokai Hit). The minimal resolution needed depends on the number of radial terraces used by RadialProfiler. […] It was determined that using 5-10 bins that are 2 pixels wide yields accurate measurements. […]

apical polarity = conditions: Yue et al., Biophys. J. 102:1215 (2012); cited from earlier work

In the case of leptin, the apical polarity [1] is reported as “loss of apical polarity”, the “averaged RP curves and integrated values (ZO-1 radial distribution)” value ([2]; acini treated 72 h with vehicle or leptin (100 ng/ml), FIG. 8C, P<0.0001) is reported as “distinct for the two treatments” and the “apical-basal polarity of GFP-ZO-1 cell line” value [3] is reported as “disturbed”. For the same substance, the “apical SiR-actin signal” value (live S1 cell acini) was “loss of apical SiR-actin signal”.

For “lipopolysaccharide [LPS, reference compound]”, the polarity score ([2]; breast acini exposed to LPS, FIG. 8F) was “decrease in the polarity score”.

For omega-6 fatty acids, the apical polarity (apical polarity) is listed as “disrupted”.
